US20150366911A1, “METHODS FOR REJUVENATING RED BLOOD CELLS” (Biomet Biologics, LLC, priority 2013, published 2015)

Experiments:
[1] = Plasma concentration in vivo after transfusion of one unit of 2,3-DPG enhanced cells; settings: Total Plasma Volume = 2.28 Liters
Experimental: A Y-type tube set is assembled is assembled as shown in FIG. 2 and connected to a unit of RBCs. The tube set includes a 0.2 μm filter. RBC enhancement composition (Rejuvesol® Solution) is transferred to the RBCs via a vented spike to form a treated blood composition. The treated blood composition is mixed and incubated, forming an incubated blood composition. The treated blood composition is centrifuged to form a concentration of RBC and a supernatant. The supernatant is transferred to an empty waste bag, and the concentration of RBCs was resuspended in 100 mL additive solution that was transferred from a second transfer bag.
A Y-type tube set is assembled as shown in FIG. 2 and connected to a unit of 250 mL RBCs. 100 mL additive solution, comprising saline, was transferred to the RBCs. The tube set includes a 0.2 μm filter. 50 mL RBC enhancement composition (Rejuvesol® Solution) was transferred to the RBCs via a vented spike to form a treated blood composition. The treated blood composition was mixed and incubated, forming an incubated blood composition. The incubated blood composition was then diluted with 200 mL wash solution from a first transfer bag containing 200 mL wash solution, forming a diluted blood composition. The diluted blood composition was centrifuged to form a concentration of RBCs and a supernatant. The supernatant was transferred to the now empty first transfer bag, and the concentration of RBCs was resuspended in 100 mL additive solution, which was transferred from a second transfer bag.
Blood processed according to Examples 1 and 2 are analyzed for concentrations of rejuvenation materials in the final processed RBC suspensions, with the following results.

[2] = Total Plasma Volume = 2.28 Liters; refer to 2000 Report by Dr. Lobe; cited from earlier work

Structure (SMILES)	Plasma Concentration in vivo after transfusion of one unit, Concept 2, assume 85% Removal [1] [µM]	Plasma Concentration in vivo after transfusion of one unit, Concept 1, assumes 75% Removal [1] [µM]	Plasma Concentration in vivo after transfusion of one unit, Without Further Processing [2] [µM]
Nc1ncnc2nc[nH]c12 [Adenine]	16	27	110
O=c1[nH]cnc2nc[nH]c12 [Hypoxanthine]	330	550	2190
OC[C@H]1O[C@@H](n2cnc3c(O)ncnc32)[C@H](O)[C@@H]1O [Inosine]	330	550	2190
CC(O)C(=O)O (stereo not drawn) [Lactate]	330	550	2190
CC(=O)C(=O)O [Pyruvate]	330	550	2190
O=c1[nH]c(=O)c2[nH]c(=O)[nH]c2[nH]1 [Uric Acid]	330	550	2190
